Measurements from ChEMBL document CHEMBL4052654, “Development of novel N-3-bromoisoxazolin-5-yl substituted 2,3-benzodiazepines as noncompetitive AMPAR antagonists” (Bioorg Med Chem, 2017).

Experiments:
Glutamate receptor 2 [1] = target: T1, Glutamate receptor 2 (Homo sapiens, UniProt P42262); test: Antagonist activity at closed state of GFP-tagged GluA2Qflip isoform (unknown origin) expressed in HEK293S cells assessed as reduction in glutamate-induced current response in presence of 0.1 mM glutamate by whole cell assay; assay type: cell-based
T1 sequence (P42262 whole entry, canonical isoform): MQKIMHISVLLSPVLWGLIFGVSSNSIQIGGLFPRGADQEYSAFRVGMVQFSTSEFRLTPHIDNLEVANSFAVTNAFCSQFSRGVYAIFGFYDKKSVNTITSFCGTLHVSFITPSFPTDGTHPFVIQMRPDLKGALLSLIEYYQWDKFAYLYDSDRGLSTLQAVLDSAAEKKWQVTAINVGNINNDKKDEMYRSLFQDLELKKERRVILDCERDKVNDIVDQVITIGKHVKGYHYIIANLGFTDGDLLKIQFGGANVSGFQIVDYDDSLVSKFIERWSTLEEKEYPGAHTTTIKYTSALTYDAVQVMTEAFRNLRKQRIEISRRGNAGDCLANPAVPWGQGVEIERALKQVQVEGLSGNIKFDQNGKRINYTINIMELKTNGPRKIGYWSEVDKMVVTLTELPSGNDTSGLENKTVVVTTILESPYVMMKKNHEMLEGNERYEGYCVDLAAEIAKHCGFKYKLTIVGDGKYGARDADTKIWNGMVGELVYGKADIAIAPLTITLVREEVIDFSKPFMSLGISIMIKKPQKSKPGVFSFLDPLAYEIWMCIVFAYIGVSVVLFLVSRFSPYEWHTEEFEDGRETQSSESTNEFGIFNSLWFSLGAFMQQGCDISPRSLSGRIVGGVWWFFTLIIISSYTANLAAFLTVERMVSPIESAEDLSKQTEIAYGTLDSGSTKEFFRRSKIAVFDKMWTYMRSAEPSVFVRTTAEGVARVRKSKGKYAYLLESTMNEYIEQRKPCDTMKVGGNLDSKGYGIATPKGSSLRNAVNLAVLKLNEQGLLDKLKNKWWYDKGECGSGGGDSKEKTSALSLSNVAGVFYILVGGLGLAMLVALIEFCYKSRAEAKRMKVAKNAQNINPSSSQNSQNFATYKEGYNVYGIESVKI

Glutamate receptor 2 [2] = target: T1, Glutamate receptor 2; test: Antagonist activity at open state of GFP-tagged GluA2Qflip isoform (unknown origin) expressed in HEK293S cells assessed as reduction in glutamate-induced current response in presence of 3 mM glutamate by whole cell assay relative to control; assay type: cell-based
Glutamate receptor 2 [3] = target: T1, Glutamate receptor 2; test: Antagonist activity at closed state of GluA2Qflip isoform (unknown origin) expressed in HEK293 cells assessed as reduction in glutamate-induced current response at 2.5 uM in presence of 0.1 mM glutamate by whole cell assay relative to control; assay type: cell-based
Glutamate receptor 2 [4] = target: T1, Glutamate receptor 2; test: Antagonist activity at open state of GluA2Qflip isoform (unknown origin) expressed in HEK293 cells assessed as reduction in glutamate-induced current response at 2.5 uM in presence of 3 mM glutamate by whole cell assay relative to control; assay type: cell-based
Glutamate receptor 2 [5] = target: T1, Glutamate receptor 2; test: Antagonist activity at closed state of GluA2Qflip isoform (unknown origin) expressed in HEK293 cells assessed as reduction in glutamate-induced current response in presence of 0.1 mM glutamate by whole cell assay; assay type: cell-based
Glutamate receptor 2 [6] = target: T1, Glutamate receptor 2; test: Antagonist activity at open state of GluA2Qflip isoform (unknown origin) expressed in HEK293 cells assessed as reduction in glutamate-induced current response in presence of 3 mM glutamate by whole cell assay relative to control; assay type: cell-based
Glutamate receptor 1 [7] = target: T2, Glutamate receptor 1 (Homo sapiens, UniProt P42261); test: Antagonist activity at closed state of GluA1 (unknown origin) assessed as reduction in glutamate-induced current response in presence of 40 to 50 uM glutamate relative to control
T2 sequence (P42261 whole entry): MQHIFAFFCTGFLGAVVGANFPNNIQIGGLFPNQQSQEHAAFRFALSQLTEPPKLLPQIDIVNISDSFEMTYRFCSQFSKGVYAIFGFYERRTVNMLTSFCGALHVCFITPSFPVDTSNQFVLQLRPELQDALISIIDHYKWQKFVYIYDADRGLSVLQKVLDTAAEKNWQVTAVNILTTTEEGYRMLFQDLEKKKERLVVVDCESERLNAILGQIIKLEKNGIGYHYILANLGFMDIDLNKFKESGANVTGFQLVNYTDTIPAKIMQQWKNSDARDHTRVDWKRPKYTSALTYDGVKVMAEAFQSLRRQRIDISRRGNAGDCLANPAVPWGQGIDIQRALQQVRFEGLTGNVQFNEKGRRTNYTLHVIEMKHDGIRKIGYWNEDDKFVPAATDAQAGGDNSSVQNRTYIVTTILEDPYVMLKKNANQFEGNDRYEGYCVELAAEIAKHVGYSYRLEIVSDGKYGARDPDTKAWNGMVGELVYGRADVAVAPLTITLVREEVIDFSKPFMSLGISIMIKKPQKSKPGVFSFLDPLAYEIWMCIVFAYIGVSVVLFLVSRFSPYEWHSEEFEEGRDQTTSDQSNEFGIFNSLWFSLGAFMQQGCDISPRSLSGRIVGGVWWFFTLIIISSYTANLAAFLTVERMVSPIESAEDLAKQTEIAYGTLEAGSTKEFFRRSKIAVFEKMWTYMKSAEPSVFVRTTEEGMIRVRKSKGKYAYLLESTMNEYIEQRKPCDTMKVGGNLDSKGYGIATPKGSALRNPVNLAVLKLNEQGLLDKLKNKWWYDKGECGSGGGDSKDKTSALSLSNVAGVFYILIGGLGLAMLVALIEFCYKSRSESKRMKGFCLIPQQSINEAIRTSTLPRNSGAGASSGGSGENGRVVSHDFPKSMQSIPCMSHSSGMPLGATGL

Glutamate receptor 1 [8] = target: T2, Glutamate receptor 1; test: Antagonist activity at open state of GluA1 (unknown origin) assessed as reduction in glutamate-induced current response in presence of 2 mM glutamate relative to control
Glutamate receptor 3 [9] = target: T3, Glutamate receptor 3 (Homo sapiens, UniProt P42263); test: Antagonist activity at closed state of GluA3 (unknown origin) assessed as reduction in glutamate-induced current response in presence of 100 uM glutamate relative to control
T3 sequence (P42263 whole entry): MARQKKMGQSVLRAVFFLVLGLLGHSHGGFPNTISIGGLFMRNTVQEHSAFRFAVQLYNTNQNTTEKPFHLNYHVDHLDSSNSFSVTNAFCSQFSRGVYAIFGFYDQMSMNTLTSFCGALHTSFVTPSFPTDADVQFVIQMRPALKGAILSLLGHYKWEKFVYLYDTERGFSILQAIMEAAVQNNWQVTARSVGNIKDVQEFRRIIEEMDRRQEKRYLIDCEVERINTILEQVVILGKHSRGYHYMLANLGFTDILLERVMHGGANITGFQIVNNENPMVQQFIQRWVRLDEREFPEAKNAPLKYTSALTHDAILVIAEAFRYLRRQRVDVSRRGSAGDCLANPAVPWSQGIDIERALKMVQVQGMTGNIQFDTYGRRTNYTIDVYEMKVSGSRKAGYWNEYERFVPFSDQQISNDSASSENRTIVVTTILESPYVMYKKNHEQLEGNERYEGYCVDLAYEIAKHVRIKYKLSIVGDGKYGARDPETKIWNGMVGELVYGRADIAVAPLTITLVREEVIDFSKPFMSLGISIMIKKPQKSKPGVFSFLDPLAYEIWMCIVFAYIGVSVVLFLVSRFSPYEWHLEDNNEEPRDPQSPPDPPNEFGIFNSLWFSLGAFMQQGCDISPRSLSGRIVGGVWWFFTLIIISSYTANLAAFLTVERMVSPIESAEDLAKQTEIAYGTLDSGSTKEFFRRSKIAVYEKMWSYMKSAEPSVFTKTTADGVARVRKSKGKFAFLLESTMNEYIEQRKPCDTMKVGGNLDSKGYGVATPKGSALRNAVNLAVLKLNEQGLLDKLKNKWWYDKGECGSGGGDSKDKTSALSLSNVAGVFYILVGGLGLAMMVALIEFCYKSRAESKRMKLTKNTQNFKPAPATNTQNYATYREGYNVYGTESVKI

Glutamate receptor 3 [10] = target: T3, Glutamate receptor 3; test: Antagonist activity at open state of GluA3 (unknown origin) assessed as reduction in glutamate-induced current response in presence of 3 mM glutamate relative to control
Glutamate receptor 4 [11] = target: T4, Glutamate receptor 4 (Homo sapiens, UniProt P48058); test: Antagonist activity at closed state of GluA4 (unknown origin) assessed as reduction in glutamate-induced current response in presence of 100 uM glutamate relative to control
T4 sequence (P48058 whole entry): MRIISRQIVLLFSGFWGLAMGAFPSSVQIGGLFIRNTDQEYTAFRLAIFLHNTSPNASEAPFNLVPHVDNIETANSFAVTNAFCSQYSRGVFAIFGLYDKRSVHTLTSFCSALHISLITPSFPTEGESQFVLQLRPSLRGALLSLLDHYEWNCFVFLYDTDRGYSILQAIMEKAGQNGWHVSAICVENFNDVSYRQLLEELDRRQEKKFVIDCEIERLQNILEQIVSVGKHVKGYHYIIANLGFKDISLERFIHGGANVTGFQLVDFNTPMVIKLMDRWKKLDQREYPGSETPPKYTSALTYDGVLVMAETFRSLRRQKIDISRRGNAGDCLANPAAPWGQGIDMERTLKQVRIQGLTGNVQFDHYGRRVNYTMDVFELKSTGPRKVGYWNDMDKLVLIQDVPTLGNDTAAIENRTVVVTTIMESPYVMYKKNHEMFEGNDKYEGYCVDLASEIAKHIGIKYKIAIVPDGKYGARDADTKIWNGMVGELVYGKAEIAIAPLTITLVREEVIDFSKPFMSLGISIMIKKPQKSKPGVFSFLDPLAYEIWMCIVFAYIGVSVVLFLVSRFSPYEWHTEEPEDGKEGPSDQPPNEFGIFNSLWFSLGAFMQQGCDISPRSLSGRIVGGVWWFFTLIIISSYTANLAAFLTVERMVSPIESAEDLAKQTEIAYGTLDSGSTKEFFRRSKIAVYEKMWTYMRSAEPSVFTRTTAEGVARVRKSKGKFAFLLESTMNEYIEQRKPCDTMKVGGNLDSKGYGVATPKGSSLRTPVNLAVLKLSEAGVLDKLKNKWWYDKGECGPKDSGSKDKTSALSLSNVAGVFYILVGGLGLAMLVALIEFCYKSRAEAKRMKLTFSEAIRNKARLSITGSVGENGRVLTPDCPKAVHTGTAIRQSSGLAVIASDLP

Glutamate receptor 4 [12] = target: T4, Glutamate receptor 4; test: Antagonist activity at open state of GluA4 (unknown origin) assessed as reduction in glutamate-induced current response in presence of 3 mM glutamate relative to control
Glutamate receptor 1 [13] = target: T2, Glutamate receptor 1; test: Antagonist activity at closed state of GluA1 (unknown origin) assessed as reduction in glutamate-induced current response in presence of 40 to 50 uM glutamate
Glutamate receptor 1 [14] = target: T2, Glutamate receptor 1; test: Antagonist activity at open state of GluA1 (unknown origin) assessed as reduction in glutamate-induced current response in presence of 2 mM glutamate
Glutamate receptor 3 [15] = target: T3, Glutamate receptor 3; test: Antagonist activity at closed state of GluA3 (unknown origin) assessed as reduction in glutamate-induced current response in presence of 100 uM glutamate
Glutamate receptor 3 [16] = target: T3, Glutamate receptor 3; test: Antagonist activity at open state of GluA3 (unknown origin) assessed as reduction in glutamate-induced current response in presence of 3 mM glutamate
Glutamate receptor 4 [17] = target: T4, Glutamate receptor 4; test: Antagonist activity at closed state of GluA4 (unknown origin) assessed as reduction in glutamate-induced current response in presence of 100 uM glutamate
Glutamate receptor 4 [18] = target: T4, Glutamate receptor 4; test: Antagonist activity at open state of GluA4 (unknown origin) assessed as reduction in glutamate-induced current response in presence of 3 mM glutamate
Glutamate receptor 2 [19] = target: T1, Glutamate receptor 2; test: Antagonist activity at closed state of GluA2Qflip isoform (unknown origin) expressed in HEK293 cells assessed as reduction in glutamate-induced current response at 10 uM in presence of 0.1 mM glutamate by whole cell assay relative to control; assay type: cell-based
Glutamate receptor 2 [20] = target: T1, Glutamate receptor 2; test: Antagonist activity at open state of GluA2Qflip isoform (unknown origin) expressed in HEK293 cells assessed as reduction in glutamate-induced current response at 10 uM in presence of 3 mM glutamate by whole cell assay relative to control; assay type: cell-based
Glutamate receptor 2 [21] = target: T1, Glutamate receptor 2; test: Antagonist activity at closed state of GluA2Qflip isoform (unknown origin) expressed in HEK293 cells assessed as reduction in glutamate-induced current response at 1 uM in presence of 0.1 mM glutamate by whole cell assay relative to control; assay type: cell-based
Glutamate receptor 2 [22] = target: T1, Glutamate receptor 2; test: Antagonist activity at open state of GluA2Qflip isoform (unknown origin) expressed in HEK293 cells assessed as reduction in glutamate-induced current response at 1 uM in presence of 3 mM glutamate by whole cell assay relative to control; assay type: cell-based

CC1=NN=C(c2ccc(N)cc2)c2cc3c(cc2C1)OCO3 [GYKI-52466]
Ki (Glutamate receptor 2 [1]): 4 µM
Ki (Glutamate receptor 2 [2]): 5 µM

Cc1cc(C2=NN(CC3CC(Br)=NO3)C(=O)Cc3cc4c(cc32)OCCO4)cc(C)c1N (stereo not drawn)
fold change (FC) (Glutamate receptor 2 [3]): 1.46
fold change (FC) (Glutamate receptor 2 [4]): 0.95
Ki (Glutamate receptor 2 [5]): 5 µM
Ki (Glutamate receptor 2 [6]): Not Active
fold change (FC) (Glutamate receptor 1 [7]): 1.19
fold change (FC) (Glutamate receptor 1 [8]): 1.39
fold change (FC) (Glutamate receptor 3 [9]): 1.09
fold change (FC) (Glutamate receptor 3 [10]): 1.18
fold change (FC) (Glutamate receptor 4 [11]): 1.34
fold change (FC) (Glutamate receptor 4 [12]): 1.22
Ki (Glutamate receptor 1 [13]): 13.2 µM
Ki (Glutamate receptor 1 [14]): 6.4 µM
Ki (Glutamate receptor 3 [15]): 27.8 µM
Ki (Glutamate receptor 3 [16]): 13.9 µM
Ki (Glutamate receptor 4 [17]): 7.4 µM
Ki (Glutamate receptor 4 [18]): 11.4 µM

Cc1cc(C2=NN(CC3CC(Br)=NO3)C(=O)Cc3cc4c(cc32)OCCO4)ccc1N (stereo not drawn)
fold change (FC) (Glutamate receptor 2 [19]): 1.23
fold change (FC) (Glutamate receptor 2 [20]): 1.2
Ki (Glutamate receptor 2 [5]): 50 µM
Ki (Glutamate receptor 2 [6]; read-out: Ki): 50 µM

Nc1ccc(C2=NN(CC3CC(Br)=NO3)C(=O)Cc3cc4c(cc32)OCCO4)cc1 (stereo not drawn)
fold change (FC) (Glutamate receptor 2 [21]): 1.44
fold change (FC) (Glutamate receptor 2 [22]): 1.09

Cc1cc(C2=NN(C3CC(Br)=NO3)C(=O)Cc3cc4c(cc32)OCCO4)cc(C)c1N (stereo not drawn)
fold change (FC) (Glutamate receptor 2 [21]): 1.21
fold change (FC) (Glutamate receptor 2 [22]): 1.24

Nc1ccc(C2=NNC(=O)Cc3cc4c(cc32)OCCO4)cc1
Ki (Glutamate receptor 2 [1]): 21 µM
Ki (Glutamate receptor 2 [2]): 33 µM

Cc1cc(C2=NNC(=O)Cc3cc4c(cc32)OCCO4)ccc1N
Ki (Glutamate receptor 2 [1]): 4 µM
Ki (Glutamate receptor 2 [2]): 9 µM

Nc1ccc(C2=NN(C3CC(Br)=NO3)C(=O)Cc3cc4c(cc32)OCCO4)cc1 (stereo not drawn)
fold change (FC) (Glutamate receptor 2 [3]): 1.75
fold change (FC) (Glutamate receptor 2 [4]): 1.18
Ki (Glutamate receptor 2 [5]): 3 µM
Ki (Glutamate receptor 2 [6]; read-out: Ki): 14 µM

Cc1cc(C2=NN(C3CC(Br)=NO3)C(=O)Cc3cc4c(cc32)OCCO4)ccc1N (stereo not drawn)
fold change (FC) (Glutamate receptor 2 [21]): 1.01
fold change (FC) (Glutamate receptor 2 [22]): 1.16

Cc1cc(C2=NNC(=O)Cc3cc4c(cc32)OCCO4)cc(C)c1N
Ki (Glutamate receptor 2 [1]): 94 µM
Ki (Glutamate receptor 2 [2]): 164 µM
